Results on seven compounds are retold here after patent US10214492B2, “Heterocyclic inhibitors of MCT4” (Vettore, LLC, priority 2016, dated 2019).

One series addresses MCT1 (Homo sapiens (Human), UniProt P53985). The series can be described thus: Assay 4: MCT1-mediated lactate transport in BT20 breast cancer cells. In kind it is cell-based. The conditions noted are these: Table 27. The essentials: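 Transport started with 10 mM L-lactate on BCECF-loaded BT20 cells in Tyrode's Solution, pH 7.4. Dye loading: BCECF-AM ester (30 mM DMSO stock), 5 min at 37° C, then one wash.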

The nature of series [1]: Metabolic stability in mouse liver microsomes (in vitro t1/2). Particulars: for half-life at 2 µM: mouse liver microsomes 0.5 mg/mL, 2 μM compound, read-out: Mouse microsome t1/2, min; for Mouse microsome % 60 min: mouse liver microsomes. In kind it is in vitro ADME. The procedure: (§1) The following are assays that may be used to evaluate the metabolic stability of compounds of Formula (I) in human, rat, or mouse microsomes. The assays follow a common procedure recited below. 1. […] Two separated experiments were performed as follows. a) With NADPH: 10 μL of 20 mg/mL liver microsomes and 40 μL of 10 mM NADPH were added to the incubations. […] The final concentration of microsomes was 0.5 mg/mL. 3. The reaction was started with the addition of 4 μL of 200 μM control compound or test compound solutions. Verapamil was used as positive control in this study. The final concentration of test compound or control compound was 2 μM. 4. Aliquots of 50 μL were taken from the reaction solution at 0, 15, 30, 45 and 60 min. […] Samples were centrifuged at 3,220 g for 40 minutes. A 90 μL aliquot of the supernatant was mixed with 90 μL of ultra-pure H2O and then used for LC-MS/MS analysis. 5. Data analysis. All calculations were carried out using Microsoft Excel. Peak areas were determined from extracted ion chromatograms. The slope value, k, was determined by linear regression of the natural logarithm of the remaining percentage of the parent drug vs. incubation time curve. The in vitro half-life (in vitro t1/2) was determined from the slope value: in vitro t1/2=−(0.693)/k.

The nature of series [2]: Metabolic stability in rat liver microsomes (in vitro t1/2). The conditions noted are these: for half-life at 2 µM: rat liver microsomes 0.5 mg/mL, 2 μM compound, read-out: Rat microsome t1/2, min; for Rat microsome % 60 min: rat liver microsomes. In kind it is in vitro ADME. The procedure:
as §1
On the technique in general: Liver microsomes are vesicles of endoplasmic reticulum, rich in cytochrome P450 enzymes.

A further series deals with MCT4 (Homo sapiens (Human), UniProt O15427). Briefly: Assay 3: MCT4-mediated lactate transport in MDA-MB-231 breast cancer cells. In kind it is cell-based. The conditions noted are these: MDA-MB-231 cells; lactate transport. The procedure, abridged:
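Read-out is BCECF fluorescence tracking the intracellular pH shift from MCT4-mediated lactate/H+ co-transport. Before measurement, MDA-MB-231 cells take up BCECF-AM for 5 min at 37° C, then are washed into Tyrode's Solution, pH 7.4.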

A short description of series [3]: Metabolic stability in human liver microsomes (in vitro t1/2). Particulars: for half-life at 2 µM: human liver microsomes 0.5 mg/mL, 2 μM compound, read-out: Human microsome t1/2, min; for Human microsome % 60 min: human liver microsomes. Type of series: in vitro ADME. As for the experimental part: as §1

Chain of MCT4 (O15427 whole entry, looked up): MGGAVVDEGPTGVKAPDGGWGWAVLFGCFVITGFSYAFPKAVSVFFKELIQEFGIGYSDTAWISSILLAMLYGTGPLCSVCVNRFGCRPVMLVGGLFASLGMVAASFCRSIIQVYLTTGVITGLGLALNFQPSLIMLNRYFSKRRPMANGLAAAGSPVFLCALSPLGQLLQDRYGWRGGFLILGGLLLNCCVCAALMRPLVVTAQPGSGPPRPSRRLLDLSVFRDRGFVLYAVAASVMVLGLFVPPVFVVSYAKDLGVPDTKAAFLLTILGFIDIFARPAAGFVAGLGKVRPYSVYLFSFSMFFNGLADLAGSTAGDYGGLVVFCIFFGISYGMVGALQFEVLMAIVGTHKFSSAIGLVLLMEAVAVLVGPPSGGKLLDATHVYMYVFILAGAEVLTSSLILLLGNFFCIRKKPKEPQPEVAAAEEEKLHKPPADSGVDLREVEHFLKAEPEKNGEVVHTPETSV
Chain of MCT4 (P35613 whole entry partner, looked up): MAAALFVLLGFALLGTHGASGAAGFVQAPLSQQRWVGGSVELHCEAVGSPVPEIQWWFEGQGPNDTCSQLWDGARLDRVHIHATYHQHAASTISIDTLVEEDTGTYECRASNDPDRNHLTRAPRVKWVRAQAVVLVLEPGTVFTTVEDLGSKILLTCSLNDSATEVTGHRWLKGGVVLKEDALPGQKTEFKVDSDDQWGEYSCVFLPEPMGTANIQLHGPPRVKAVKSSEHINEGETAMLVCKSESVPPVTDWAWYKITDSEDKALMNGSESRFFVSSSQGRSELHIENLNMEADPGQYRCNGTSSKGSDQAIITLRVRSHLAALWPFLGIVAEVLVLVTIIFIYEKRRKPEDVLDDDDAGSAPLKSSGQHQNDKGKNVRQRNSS
Chain of MCT1 (P53985 whole entry): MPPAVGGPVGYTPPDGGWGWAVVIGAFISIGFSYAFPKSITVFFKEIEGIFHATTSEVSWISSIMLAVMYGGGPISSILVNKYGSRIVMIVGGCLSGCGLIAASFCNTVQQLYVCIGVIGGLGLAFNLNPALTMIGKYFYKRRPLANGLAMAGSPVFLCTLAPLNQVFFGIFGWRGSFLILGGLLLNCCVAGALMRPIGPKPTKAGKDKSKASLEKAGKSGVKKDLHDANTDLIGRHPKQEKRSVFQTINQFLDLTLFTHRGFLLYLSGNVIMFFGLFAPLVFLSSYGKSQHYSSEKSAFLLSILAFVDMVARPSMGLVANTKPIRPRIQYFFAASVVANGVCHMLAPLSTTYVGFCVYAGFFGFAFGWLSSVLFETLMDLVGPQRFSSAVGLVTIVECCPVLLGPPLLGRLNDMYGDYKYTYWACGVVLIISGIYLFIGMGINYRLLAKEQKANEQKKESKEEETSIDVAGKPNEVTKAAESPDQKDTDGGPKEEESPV
Chain of MCT1 (P35613 140-385 partner): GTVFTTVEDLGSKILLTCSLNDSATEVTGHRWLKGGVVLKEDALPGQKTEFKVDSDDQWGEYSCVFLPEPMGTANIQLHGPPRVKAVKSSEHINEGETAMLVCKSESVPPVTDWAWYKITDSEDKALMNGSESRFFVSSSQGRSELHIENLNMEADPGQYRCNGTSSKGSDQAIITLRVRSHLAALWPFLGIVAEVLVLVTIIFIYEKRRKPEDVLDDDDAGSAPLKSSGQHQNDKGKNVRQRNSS

`CC[C@](C)(OCc1cc(-c2cccc(OC)c2)n(Cc2ccccc2Cl)n1)C(=O)O` [Example 120, (2S)-2-([1-[(2-chlorophenyl)methyl]-5-(3-methoxyphenyl)-1H-pyrazol-3-yl]methoxy)-2-methylbutanoic Acid]: it took 22000 nM to reach half-maximal inhibition at MCT1 (IC50). Further, in series [1], the half-life at 2 µM worked out at 6.83 h and the “Mouse microsome % 60 min” value is listed as 101%. In series [2], the half-life at 2 µM was 0.85 h and the “Rat microsome % 60 min” value worked out at 44%. The midpoint of inhibition at MCT4, the IC50, lay at 4 nM. In series [3], the half-life at 2 µM is 3.3 h and the “Human microsome % 60 min” value stood at 81%.

On MCT1, `CC[C@@](C)(OCc1cc(-c2cccc(OC)c2)n(Cc2ccccc2Cl)n1)C(=O)O` [Example 121, (2R)-2-([1-[(2-chlorophenyl)methyl]-5-(3-methoxyphenyl)-1H-pyrazol-3-yl]methoxy)-2-methylbutanoic Acid] registered an IC50 of 21000 nM. Further, in series [1], the half-life at 2 µM was 3.1 h and the “Mouse microsome % 60 min” value is 81%. In series [2], the half-life at 2 µM was 1.43 h and the “Rat microsome % 60 min” value stood at 61%. In addition, the midpoint of inhibition against MCT4, the IC50, lay at 8 nM. In addition, in series [3], the half-life at 2 µM stood at 3.3 h and the “Human microsome % 60 min” value turned out to be 82%.

As for `CC(C)COc1ncc(-c2cc(COC(C)(C)C(=O)O)nn2Cc2ccccc2Cl)s1` [Example 132, 2-([1-[(2-Chlorophenyl)methyl]-5-[2-(2-methylpropoxy)-1,3-thiazol-5-yl]-1H-pyrazol-3-yl]methoxy)-2-methylpropanoic acid], 8200 nM corresponded to half-maximal inhibition on MCT1 (IC50). Also, in series [1], the half-life at 2 µM amounted to 1.63 h and the “Mouse microsome % 60 min” value amounted to 64%. In series [2], the half-life at 2 µM was found to be 1.87 h and the “Rat microsome % 60 min” value is given as 70%. Moreover, the midpoint of inhibition on MCT4, the IC50, lay at 8.6 nM. For the same compound, in series [3], the half-life at 2 µM turned out to be 1.93 h and the “Human microsome % 60 min” value was 70%.

In the case of `CC(C)Cc1ncc(-c2cc(COC(C)(C)C(=O)O)nn2Cc2ccccc2Cl)o1` [Example 134, 2-([1-[(2-Chlorophenyl)methyl]-5-[2-(2-methylpropyl)-1,3-oxazol-5-yl]-1H-pyrazol-3-yl]methoxy)-2-methylpropanoic acid], in series [1], the half-life at 2 µM was determined as 1.82 h and the “Mouse microsome % 60 min” value stood at 72%. In series [2], the half-life at 2 µM was found to be 4.4 h and the “Rat microsome % 60 min” value worked out at 85%. In series [3], the half-life at 2 µM amounted to 3.1 h and the “Human microsome % 60 min” value was 80%.

With `CCn1ncc2ccc(-c3cc(COC(C)(C)C(=O)O)nn3-c3ccccc3Cl)cc21` [Example 157, 2-([1-(2-chlorophenyl)-5-(1-ethyl-1H-indazol-6-yl)-1H-pyrazol-3-yl]methoxy)-2-methylpropanoic acid], in series [1], the half-life at 2 µM is 161 h and the “Mouse microsome % 60 min” value was 102%. Also, in series [2], the half-life at 2 µM worked out at 12.5 h and the “Rat microsome % 60 min” value came out at 97%. Besides, in series [3], the half-life at 2 µM came to 2.48 h and the “Human microsome % 60 min” value is 78%.

Regarding `Cn1ncc2cccc(-n3nc(COC(C)(C)C(=O)O)cc3-c3cccc(OCC4CCC4)c3)c21` [Example 168, 2-([5-[3-(cyclobutylmethoxy)phenyl]-1-(1-methyl-1H-indazol-7-yl)-1H-pyrazol-3-yl]-methoxy)-2-methylpropanoic acid], in series [1], the half-life at 2 µM was found to be 3.82 h and the “Mouse microsome % 60 min” value came to 81%. In series [2], the half-life at 2 µM was found to be 2.88 h and the “Rat microsome % 60 min” value amounted to 81%. The midpoint of inhibition against MCT4, the IC50, lay at 1.7 nM. Also, in series [3], the half-life at 2 µM is 3.12 h and the “Human microsome % 60 min” value is 78%.

At MCT1, `CCOc1cccc(-n2nc(COC(C)(C)C(=O)O)cc2-c2cc(OC)cc(OC)c2)c1` [Example 243, 2-([5-(3,5-Dimethoxyphenyl)-1-(3-ethoxyphenyl)-1H-pyrazol-3-yl]methoxy)-2-methylpropanoic acid] had an IC50 of 78000 nM. Besides, in series [1], the half-life at 2 µM is 21.7 h and the “Mouse microsome % 60 min” value is listed as 97%. Besides, in series [2], the half-life at 2 µM worked out at 5.03 h and the “Rat microsome % 60 min” value stood at 88%. Moreover, in series [3], the half-life at 2 µM was 7.22 h and the “Human microsome % 60 min” value is on record as 88%.

In general, IC50 refers to the point on the concentration scale where inhibition reaches its midpoint.
